One test addresses T1, human GCGR (Homo sapiens, UniProt P47871).
T1 construct: expressed in transfected cells; grown with Blasticidin and Hygromycin
Briefly: cAMP activity assay, cells expressing human GCGR.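 On all read-outs here: cAMP production read by luminescence after one hour of peptide exposure at room temperature, EC50 from logistic curve fit, native glucagon and GLP-1 as control peptides.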 Particulars: for GCGR/GLP1R ratio: Table 5, ratio of hGCGR EC50 to hGLP1R EC50. It is filed as cell-based.

The next test concerns the target human GLP1R (Homo sapiens, UniProt P43220). Briefly: cAMP activity assay, cells expressing human GLP1R. It is filed as cell-based.

Where two headings read alike, the source gives them in different places.

T1 sequence (P47871 26-477): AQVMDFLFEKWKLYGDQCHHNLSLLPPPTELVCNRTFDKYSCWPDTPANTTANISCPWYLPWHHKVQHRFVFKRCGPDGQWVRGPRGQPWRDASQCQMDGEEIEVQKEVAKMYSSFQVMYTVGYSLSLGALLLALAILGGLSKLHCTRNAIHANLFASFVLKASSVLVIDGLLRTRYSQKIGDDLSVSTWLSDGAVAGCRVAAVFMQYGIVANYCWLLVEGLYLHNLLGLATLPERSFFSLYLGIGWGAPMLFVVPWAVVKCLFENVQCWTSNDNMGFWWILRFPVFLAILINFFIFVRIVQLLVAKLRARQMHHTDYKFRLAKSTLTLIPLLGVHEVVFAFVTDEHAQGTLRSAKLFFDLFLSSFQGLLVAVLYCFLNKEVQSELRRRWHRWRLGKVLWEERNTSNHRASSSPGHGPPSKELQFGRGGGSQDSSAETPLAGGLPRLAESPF
Chain of human GLP1R (P43220 24-463): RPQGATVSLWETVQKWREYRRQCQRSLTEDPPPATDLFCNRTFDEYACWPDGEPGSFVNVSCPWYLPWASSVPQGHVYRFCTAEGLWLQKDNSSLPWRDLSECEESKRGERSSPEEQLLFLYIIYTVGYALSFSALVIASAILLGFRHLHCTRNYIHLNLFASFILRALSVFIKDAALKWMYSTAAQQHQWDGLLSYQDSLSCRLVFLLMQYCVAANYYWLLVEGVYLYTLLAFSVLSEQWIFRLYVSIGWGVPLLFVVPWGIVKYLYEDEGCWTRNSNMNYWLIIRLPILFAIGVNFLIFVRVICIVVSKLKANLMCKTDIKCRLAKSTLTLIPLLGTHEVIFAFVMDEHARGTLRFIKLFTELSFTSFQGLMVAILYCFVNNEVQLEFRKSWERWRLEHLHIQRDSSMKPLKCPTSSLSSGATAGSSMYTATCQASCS
Method for human GCGR: (§1) Activity of the incretin peptides or the conjugates at the Glucagon receptor (GCGR) and GLP-1 receptor (GLP1R) may be measured in a cAMP activity assay as follows.
(§2) Peptides are dissolved in 100% DMSO and serially diluted to generate 10 point titrations. The peptide solutions are then transferred into 384-well assay plates (150 nL/well). Assay ready frozen cells expressing human GLP1R or human GCGR are suspended in growth media consisting of DMEM medium (GIBCO), 10% FBS (GIBCO), 1×NEAA(GIBCO), 1×P/S (GIBCO), 10 μg/mL Blasticidin (GIBCO) and 200 μg/mL Hygromycin (GIBCO). […] The cell suspensions (15 μL) are then added to the assay plates containing the peptide solutions (30,000 cells/well for human GCGR; 10,000 cells/well for human GLP1R). The cells are incubated for one hour at room temperature in the dark.
(§3) Production of cAMP may be determined using HitHunterr cAMPXS kits (DiscoverX) following the manufacturer's protocol. The plates are incubated for overnight at room temperature in the dark. Luminescence may be measured using an EnVision Multilabel plate reader (Perkin Elmer). Native GLP-1 and Glucagon (Bachem) may be used as control peptides. EC50 values may be calculated using uses a 4 parameter logistic fit based on the Levenberg-Marquardt algorithm.
Method for human GLP1R: as §1, §2, §3

For the compound `CCCCCCCCCCCCCCCC(=O)N[C@@H](CCC(=O)N[C@@H](CCC(=O)NCCCC[C@H](NC(=O)[C@H](CC(=O)O)NC(=O)[C@H](CO)NC(=O)[C@@H](NC(=O)[C@H](Cc1ccccc1)NC(=O)[C@@H](NC(=O)CNC(=O)[C@H](CCC(N)=O)NC(=O)[C@@H](CO)NC(=O)[C@@H](N)Cc1c[nH]cn1)[C@@H](C)O)[C@@H](C)O)C(=O)N[C@@H](CO)C(=O)N[C@@H](CCCCN)C(=O)N[C@@H](Cc1ccc(O)cc1)C(=O)N[C@@H](CC(C)C)C(=O)N[C@@H](CC(=O)O)C(=O)N[C@@H](CCC(=O)O)C(=O)N[C@@H](CCCNC(=N)N)C(=O)N[C@@H](C)C(=O)N[C@@H](C)C(=O)N[C@@H](CCC(N)=O)C(=O)N[C@@H](CCCCN=[N+]=[N-])C(=O)N[C@@H](Cc1ccccc1)C(=O)N[C@H](C(=O)N[C@@H](CCC(N)=O)C(=O)N[C@@H](Cc1c[nH]c2ccccc12)C(=O)N[C@@H](CC(C)C)C(=O)N[C@@H](CC(C)C)C(=O)N[C@@H](CC(=O)O)C(=O)N[C@H](C(N)=O)[C@@H](C)O)C(C)C)C(=O)O)C(=O)O` [PEP1], at human GCGR, the GCGR/GLP1R ratio is 0.5. Besides, the half-maximal effective concentration (EC50) (usually the concentration needed to bring the measured effect to its halfway point) at human GLP1R (Table 5, incretin peptides, cAMP, read-out: hGLP1R EC50) worked out at 0.03 nM. Regarding `CCCCCCCCCCCCCCCC(=O)N[C@@H](CCC(=O)N[C@@H](CCC(=O)NCCCC[C@H](NC(=O)[C@H](CC(=O)O)NC(=O)[C@H](CO)NC(=O)[C@@H](NC(=O)[C@H](Cc1ccccc1)NC(=O)[C@@H](NC(=O)CNC(=O)[C@H](CCC(N)=O)NC(=O)C(C)(C)NC(=O)[C@@H](N)Cc1c[nH]cn1)[C@@H](C)O)[C@@H](C)O)C(=O)N[C@@H](CO)C(=O)N[C@@H](CCCCN)C(=O)N[C@@H](Cc1ccc(O)cc1)C(=O)N[C@@H](CC(C)C)C(=O)N[C@@H](CC(=O)O)C(=O)N[C@@H](CCC(=O)O)C(=O)N[C@@H](CCCNC(=N)N)C(=O)N[C@@H](C)C(=O)N[C@@H](C)C(=O)N[C@@H](CCC(N)=O)C(=O)N[C@@H](CC(=O)O)C(=O)N[C@@H](Cc1ccccc1)C(=O)N[C@H](C(=O)N[C@@H](CCCCN=[N+]=[N-])C(=O)N[C@@H](Cc1c[nH]c2ccccc12)C(=O)N[C@@H](CC(C)C)C(=O)N[C@@H](CC(C)C)C(=O)N[C@@H](CC(=O)O)C(=O)NCC(=O)N[C@@H](CCCNC(=N)N)C(=O)NCC(N)=O)C(C)C)C(=O)O)C(=O)O` [PEP2], on human GCGR, a half-maximal response (EC50) required 0.11 nM and the GCGR/GLP1R ratio was determined as 3.7. For the same compound, on human GLP1R, the EC50 was 0.03 nM. As to `CC(C)C[C@H](NC(=O)[C@H](Cc1ccc(O)cc1)NC(=O)[C@H](CCCCN)NC(=O)[C@H](CO)NC(=O)[C@H](CCCCNC(=O)COCCOCCNC(=O)COCCOCCNC(=O)CC[C@H](NC(=O)CCCCCCCCCCCCCCCCC(=O)O)C(=O)O)NC(=O)[C@H](CC(=O)O)NC(=O)[C@H](CO)NC(=O)[C@@H](NC(=O)[C@H](Cc1ccccc1)NC(=O)[C@@H](NC(=O)CNC(=O)[C@H](CCC(N)=O)NC(=O)[C@@H](CO)NC(=O)[C@@H](N)Cc1c[nH]cn1)[C@@H](C)O)[C@@H](C)O)C(=O)N[C@@H](CC(=O)O)C(=O)N[C@@H](CCC(=O)O)C(=O)N[C@@H](CCCNC(=N)N)C(=O)N[C@@H](C)C(=O)N[C@@H](C)C(=O)N[C@@H](CCC(N)=O)C(=O)N[C@@H](CC(=O)O)C(=O)N[C@@H](Cc1ccccc1)C(=O)N[C@H](C(=O)N[C@@H](CCCCN=[N+]=[N-])C(=O)N[C@@H](Cc1c[nH]c2ccccc12)C(=O)N[C@@H](CC(C)C)C(=O)N[C@@H](CC(C)C)C(=O)N[C@@H](CC(=O)O)C(=O)N[C@H](C(N)=O)[C@@H](C)O)C(C)C` [PEP29], the GCGR/GLP1R ratio on human GCGR was determined as 1.0. Still for that read-out and setting: as for `CC(C)C[C@H](NC(=O)[C@H](Cc1ccc(O)cc1)NC(=O)[C@H](CCCCN)NC(=O)[C@H](CO)NC(=O)[C@H](Cc1ccc(O)cc1)NC(=O)[C@H](CC(=O)O)NC(=O)[C@H](CO)NC(=O)[C@@H](NC(=O)[C@H](Cc1ccccc1)NC(=O)[C@@H](NC(=O)CNC(=O)[C@H](CCC(N)=O)NC(=O)C(C)(C)NC(=O)[C@@H](N)Cc1c[nH]cn1)[C@@H](C)O)[C@@H](C)O)C(=O)N[C@@H](CC(=O)O)C(=O)N[C@@H](C)C(=O)N[C@@H](CCCNC(=N)N)C(=O)N[C@@H](C)C(=O)N[C@@H](C)C(=O)N[C@@H](CCCCNC(=O)COCCOCCNC(=O)COCCOCCNC(=O)CC[C@H](NC(=O)CCCCCCCCCCCCCCCCCCC(=O)O)C(=O)O)C(=O)N[C@@H](CC(=O)O)C(=O)N[C@@H](Cc1ccccc1)C(=O)N[C@H](C(=O)N[C@@H](CCCCN=[N+]=[N-])C(=O)N[C@@H](Cc1c[nH]c2ccccc12)C(=O)N[C@@H](CC(C)C)C(=O)N[C@@H](CCS(C)(=O)=O)C(=O)N[C@@H](CC(=O)O)C(=O)N[C@H](C(N)=O)[C@@H](C)O)C(C)C` [PEP31], the figure is 3.1. For the compound `CC(C)C[C@H](NC(=O)[C@H](Cc1ccc(O)cc1)NC(=O)[C@H](CCCCN)NC(=O)[C@H](CO)NC(=O)[C@H](CCCCN)NC(=O)[C@H](CC(=O)O)NC(=O)[C@H](CO)NC(=O)[C@@H](NC(=O)[C@H](Cc1ccccc1)NC(=O)[C@@H](NC(=O)CNC(=O)[C@H](CCC(N)=O)NC(=O)[C@@H](CO)NC(=O)[C@@H](N)Cc1c[nH]cn1)[C@@H](C)O)[C@@H](C)O)C(=O)N[C@@H](CC(=O)O)C(=O)N[C@@H](CCC(=O)O)C(=O)N[C@@H](CCCNC(=N)N)C(=O)N[C@@H](C)C(=O)N[C@@H](C)C(=O)N[C@@H](CCC(N)=O)C(=O)N[C@@H](CC(=O)O)C(=O)N[C@@H](Cc1ccccc1)C(=O)N[C@H](C(=O)N[C@@H](CCC(N)=O)C(=O)N[C@@H](Cc1c[nH]c2ccccc12)C(=O)N[C@@H](CC(C)C)C(=O)N[C@@H](CC(C)C)C(=O)N[C@@H](CC(=O)O)C(=O)N[C@H](C(=O)N[C@@H](CCCCN=[N+]=[N-])C(N)=O)[C@@H](C)O)C(C)C` [PEP73], the GCGR/GLP1R ratio on human GCGR was 0.6.

With `CCCCCCCCCCCCCCCC(=O)N[C@@H](CCC(=O)N[C@@H](CCC(=O)NCCCC[C@H](NC(=O)[C@H](CC(=O)O)NC(=O)[C@H](CO)NC(=O)[C@@H](NC(=O)[C@H](Cc1ccccc1)NC(=O)[C@@H](NC(=O)CNC(=O)[C@H](CCC(N)=O)NC(=O)[C@@H](CO)NC(=O)[C@@H](N)Cc1c[nH]cn1)[C@@H](C)O)[C@@H](C)O)C(=O)N[C@@H](CO)C(=O)N[C@@H](CCCCN)C(=O)N[C@@H](Cc1ccc(O)cc1)C(=O)N[C@@H](CC(C)C)C(=O)N[C@@H](CC(=O)O)C(=O)N[C@@H](CCC(=O)O)C(=O)N[C@@H](CCCNC(=N)N)C(=O)N[C@@H](C)C(=O)N[C@@H](C)C(=O)N[C@@H](CCC(N)=O)C(=O)N[C@@H](CC(=O)O)C(=O)N[C@@H](Cc1ccccc1)C(=O)N[C@H](C(=O)N[C@@H](CCC(N)=O)C(=O)N[C@@H](Cc1c[nH]c2ccccc12)C(=O)N[C@@H](CC(C)C)C(=O)N[C@@H](CC(C)C)C(=O)N[C@@H](CC(=O)O)C(=O)N[C@H](C(N)=O)[C@@H](C)O)C(C)C)C(=O)O)C(=O)O` [PEP76, reference compound], the “Ratio GCGR/GLP1R” value at human GCGR (Table 7, control molecules) was 1.3. As to “HsQGTGTSD-K(γEγEC16)SKYLDURAAQDFV-Nle(ϵN3)-WLLDT-NH2 [PEP7]”, on human GCGR, the GCGR/GLP1R ratio is listed as 0.2.

The values above are taken from US20190175744A1, “INSULIN-INCRETIN CONJUGATES” (Merck Sharp & Dohme Corp., priority 2016, published 2019).
